{
  "source": "patent US9265189B2",
  "about": "“Method for reducing damage by harmful organisms in corn cultivation” (SUMITOMO CHEMICAL COMPANY, LIMITED, priority 2012, dated 2016)",
  "tested_on": "Agriotes spp.",
  "experiment": "Field test, corn plants damaged by Agriotes spp. after in-furrow spray (Example 2)",
  "assay_type": "in vivo",
  "conditions": "Example section 2: clothianidin 50 g/ha, in-furrow spray of Dantop 50WG aqueous suspension 100 L/ha, corn DK 440, 34 days after application; non-treatment section 73.3",
  "procedure": "Using a pneumatic seeder (disk furrow opener, manufactured by Gaspardo) equipped with a power sprayer (trade name: WJR 2525, manufactured by HONDA), a cultivated land was ditched at intervals of 75 cm to a depth of 3 cm from the soil surface, and the furrow was seeded with corn (Zea Mays, trade name: DK 440; hybrid variety, manufactured by Monsanto) at intervals of […]. A seeding density of corn was 100000 seeds/ha. Then, the furrow was spray-treated with an aqueous suspension of a clothianidin water dispersible granule (using a 50% dispersible granule, trade name: Dantop 50WG, manufactured by Philagro) at 100 L/ha so that the application amount of clothianidin was 50 g/ha, and then a soil on the side of the furrow was gathered together to close the furrow. This was defined as an example section 2. For comparison, a non-treatment section, which was seeded with corn without application of a clothianidin water dispersible granule, was provided. […] 34 days after application of the clothianidin water dispersible granule, the number of plants of corn damaged by Agriotes spp. in each of the example section 2 and the non-treatment section was investigated, a damage plant rate was calculated in accordance with the following equation, and then an average damage plants rate of the four investigation sections was determined. […]",
  "data": [
    {"smiles": "CN/C(=N\\[N+](=O)[O-])NCc1cnc(Cl)s1", "note": "[clothianidin]", "values": [
      {"measurement": "Damage plant rate (%)", "value": 7.7, "unit": "%"}
    ]}
  ]
}
